Here are results for 27 molecules from EP0082668A1, “5-(2-Halogenovinyl)-2'-deoxyuridine derivatives, processes for their preparation, pharmaceutical compositions containing them and their use in treating viral infections” (BEECHAM GROUP PLC, priority 1981, dated 1983).

Each structure is given as a SMILES string. Where “and” joins values, the source holds several entries; their conditions need not be identical. Equal values may be shown once. Read-outs that look alike come from different tables or passages of the source.

Data set [1] deals with herpes simplex type 1 virus (HFEM strain). Description: Plaque reduction test in Vero cells infected with herpes simplex type 1 virus. Format: cell-based. The method, then: (§1) Vero (African Green Monkey Kidney) cells were grown to confluence in 6 well multidishes, each well being 3.5 cm in diameter. The cells were incubated with herpes simplex type 1 virus (HFEM strain) and overlaid with 0.5 mL of 0.9% agarose (w/v) in maintenance medium containing the test compound at a range of concentrations from 100 pg/mL in half-log dilution steps. The virus infected cultures were then incubated at 37°C for 6 days before fixing in 4% formaldehyde solution and staining with carbolfuchsin. The dishes were then examined to find the concentration of test compound causing a 50% reduction in the number of virus plaques formed (PDD50 value) and the minimum concentration of test compound which killed the cell monolayer, leaving a clear zone devoid of cells and virus plaques (MTD).

Data set [2] can be described thus: Minimum concentration killing the cell monolayer (MTD), read in the plaque reduction test. Format: cell-based, African Green Monkey. The settings on record: monkey, vero cells; minimum concentration which killed the cell monolayer; virus infected Vero cultures, 6 days at 37°C. The method, then: as §1
Where [3] appears, read: Human alphaherpesvirus 1, 144 h, concentration causing a 50% reduction in the number of virus plaques, Vero cells, HFEM strain, 6 days at 37°C, molar, read-out: PDD50 (the source's name).
The mark [4] stands for this setting: Human alphaherpesvirus 1, 144 h, concentration causing a 50% reduction in the number of virus plaques, Vero cells, HFEM strain, 6 days at 37°C, read-out: PDD50 (the source's name).
[5] abbreviates: Human alphaherpesvirus 1, Vero, 144 h, read-out: PDD50.

Turning to `O=C(OC[C@H]1O[C@@H](n2cc(/C=C/Br)c(=O)[nH]c2=O)C[C@@H]1OC(=O)c1ccccc1)c1ccccc1` [Example 2, E-5-(2-bromovinyl)-3',5'-di-O-benzoyl-2'-deoxyuridine], the IC50 in data set [1] (setting [3]) came out at 100 µM; in data set [1] (setting [4]) it was 54 µg/mL. The same molecule yielded an MCC at 144 h in data set [2] greater than 100 µg/mL.
The matching figures for `O=C(OC[C@H]1O[C@@H](n2cc(/C=C/Br)c(=O)[nH]c2=O)C[C@@H]1O)c1ccccc1` [Example 3, 5'-O-benzoyl-E-5-(2-bromovinyl)-2'-deoxyuridine]: 3.7 µM, 1.7 µg/mL and greater than 100 µg/mL.
The matching figures for `O=C(O[C@H]1C[C@H](n2cc(/C=C/Br)c(=O)n(C(=O)c3ccccc3)c2=O)O[C@@H]1CO)c1ccccc1` [Example 10, 3-N-Benzoyl-3'-O-benzoyl-E-5-(2-bromovinyl)-2'-deoxyuridine]: 3.8 µM, 2.1 µg/mL and 100 µg/mL.
On the same counts, the results for `O=C(O[C@H]1C[C@H](n2cc(/C=C/Br)c(=O)[nH]c2=O)O[C@@H]1CO)c1ccccc1` [Example 11, 3'-O-Benzoyl-E-5-(2-bromovinyl)-2'-deoxyuridine] are 3.7 µM, 1.6 µg/mL and greater than 100 µg/mL.
Regarding `O=C(c1ccccc1)n1c(=O)c(/C=C/Br)cn([C@H]2C[C@H](O)[C@@H](CO)O2)c1=O` [Example 12, 3-N-Benzoyl-E-5-(2-bromovinyl)-2'-deoxyuridine], the IC50 in data set [1] (setting [3]) is 0.53 µM; in data set [1] (setting [4]), 0.23 µg/mL. In addition, in data set [2], the MCC at 144 h is 100 µg/mL.
`O=C(OC[C@H]1O[C@@H](n2cc(/C=C/Br)c(=O)[nH]c2=O)C[C@@H]1OC(=O)c1ccc(Cl)cc1)c1ccc(Cl)cc1` [Example 15, E-5-(2-Bromovinyl)-3',5'-di-O-p-chlorobenzoyl-2'-deoxyuridine]: the IC50 turned out to be 121 µM in data set [1] (setting [3]) and 74 µg/mL in data set [1] (setting [4]). Besides, the MCC at 144 h in data set [2] was greater than 100 µg/mL.
On to `O=C(Cc1ccccc1)OC[C@H]1O[C@@H](n2cc(/C=C/Br)c(=O)[nH]c2=O)C[C@@H]1OC(=O)Cc1ccccc1` [Example 17, E-5-(2-Bromovinyl)-3',5'-di-0-phenylacetyl-2'-deoxyuridine], for which the IC50 in data set [1] (setting [5]) is 3.9 µg/mL and 6.9 µM. In data set [2], this molecule registered an MCC at 144 h greater than 100 µg/mL.
`O=C(OC[C@H]1O[C@@H](n2cc(/C=C/Br)c(=O)[nH]c2=O)C[C@@H]1O)c1ccc(Cl)cc1` [Example 18, E-5-(2-Bromovinyl)-5'-0-p-chlorobenzoyl-2'-deoxyuridine]: the IC50 in data set [1] (setting [3]) was determined as 1.78 µM; in data set [1] (setting [4]), 0.84 µg/mL. In addition, in data set [2], the MCC at 144 h was greater than 100 µg/mL.
Turning to `COc1ccc(C(=O)OC[C@H]2O[C@@H](n3cc(/C=C/Br)c(=O)[nH]c3=O)C[C@@H]2O)cc1` [Example 19, E-5-(2-Bromovinyl)-5'-p-methoxybenzoyl-2'-deoxyuridine], the IC50 in data set [1] (setting [3]) was found to be 13.5 µM; in data set [1] (setting [4]), 6.3 µg/mL. The molecule also displayed an MCC at 144 h in data set [2] of 100 µg/mL.
On to `O=C(c1ccc(Cl)cc1)n1c(=O)c(/C=C/Br)cn([C@H]2C[C@H](O)[C@@H](CO)O2)c1=O` [Example 20, E-5-(2-Bromovinyl)-3-N-p-chlorobenzoyl-2'-deoxyuridine], for which the IC50 stood at 0.25 µM in data set [1] (setting [3]) and 0.12 µg/mL in data set [1] (setting [4]). Besides, the MCC at 144 h in data set [2] was greater than 100 µg/mL.
On the same counts, the results for `COc1ccc(C(=O)n2c(=O)c(/C=C/Br)cn([C@H]3C[C@H](O)[C@@H](CO)O3)c2=O)cc1` [Example 21, E-5-(2-Bromovinyl)-3-N-p-methoxybenzoyl-2'-deoxyuridine] are 0.54 µM, 0.25 µg/mL and greater than 100 µg/mL.
In the case of `C[Si](C)(C)OC[C@H]1O[C@@H](n2cc(/C=C/Br)c(=O)[nH]c2=O)C[C@@H]1O[Si](C)(C)C` [Example 22, E-5-(2-Bromovinyl)-3',5'-bis-O-trimethylsilyl-2'-deoxyuridine], the IC50 in data set [1] (setting [5]) was 0.24 µg/mL and 500 nM. Further, in data set [2], the MCC at 144 h is greater than 100 µg/mL.
Regarding `CCCCC(=O)n1c(=O)c(/C=C/Br)cn([C@H]2C[C@H](O)[C@@H](CO)O2)c1=O` [Example 23, E-5-(2-Bromovinyl)-3-N-valeryl-2'-deoxyuridine], the figures for the IC50 in data set [1] (setting [3]) and in data set [1] (setting [4]) were 0.62 µM and 0.26 µg/mL, respectively. Moreover, the MCC at 144 h in data set [2] is greater than 100 µg/mL.
On the same counts, the results for `CC(C)(C)C(=O)n1c(=O)c(/C=C/Br)cn([C@H]2C[C@H](O)[C@@H](CO)O2)c1=O` [Example 24, E-5-(2-Bromovinyl)-3-N-pivaloyl-2'-deoxyuridine] are 1.1 µM, 0.46 µg/mL and greater than 100 µg/mL.
The matching figures for `O=C(C1CCCCC1)n1c(=O)c(/C=C/Br)cn([C@H]2C[C@H](O)[C@@H](CO)O2)c1=O` [Example 25, E-5-(2-Bromovinyl)-3-N-cyclohexanecarbonyl-2^1-deoxyuridine]: 0.72 µM, 0.32 µg/mL and greater than 100 µg/mL.
The matching figures for `O=C(c1cccc(Cl)c1)n1c(=O)c(/C=C/Br)cn([C@H]2C[C@H](O)[C@@H](CO)O2)c1=O` [Example 26, E-5-(2-Bromovinyl)-3-N-(3-chlorobenzoyl)-2^1-deoxyuridine]: 0.53 µM, 0.25 µg/mL and greater than 100 µg/mL.
Consider `CCCN(CCC)S(=O)(=O)c1ccc(C(=O)OC[C@H]2O[C@@H](n3cc(/C=C/Br)c(=O)[nH]c3=O)C[C@@H]2O)cc1` [Example 29, E-5-(2-Bromovinyl)-5'-p-(dipropylsulphamoyl)benzoyl-2'-deoxyuridine], for which the figures for the IC50 in data set [1] (setting [3]) and in data set [1] (setting [4]) were 1.87 µM and 1.12 µg/mL, respectively. Further, the MCC at 144 h in data set [2] is greater than 100 µg/mL.
On the same counts, the results for `CCCN(CCC)S(=O)(=O)c1ccc(C(=O)n2c(=O)c(/C=C/Br)cn([C@H]3C[C@H](O)[C@@H](CO)O3)c2=O)cc1` [Example 30, E-5-(2-Bromovinyl)-3-[4-(N,N-di-n-propylsulphamoyl)benzoyl]-2'-deoxyuridine] are 0.18 µM, 0.11 µg/mL and greater than 100 µg/mL.
As for `O=C(OC[C@H]1O[C@@H](n2cc(/C=C/Br)c(=O)[nH]c2=O)C[C@@H]1OC(=O)c1ccc([N+](=O)[O-])cc1)c1ccc([N+](=O)[O-])cc1` [Example 31, E-5-(2-bromovinyl)-3',5'-di-O(4-nitrobenzoyl)-2-deoxy-uridine], the IC50 in data set [1] (setting [5]) was 20 µg/mL and 32 µM. For the same molecule, the MCC at 144 h in data set [2] was greater than 100 µg/mL.
With `O=C(OC[C@H]1O[C@@H](n2cc(/C=C/Br)c(=O)[nH]c2=O)C[C@@H]1O)c1ccc([N+](=O)[O-])cc1` [Example 32, E-5-(2-Bromovinyl)-5' -O-(4-nitrobenzoyl)-2'-deoxyuridine], the IC50 was found to be 2 µM in data set [1] (setting [3]) and 0.95 µg/mL in data set [1] (setting [4]). Moreover, the MCC at 144 h in data set [2] was greater than 100 µg/mL.
The matching figures for `O=C(OC[C@H]1O[C@@H](n2cc(/C=C/Br)c(=O)[nH]c2=O)C[C@@H]1OC(=O)c1ccc(Cl)c(Cl)c1)c1ccc(Cl)c(Cl)c1` [Example 33, E-5-(2-bromovinyl)-3',5'-di-O-(3,4-dichlorobenzoyl)-2'-deoxyuridine]: 147 µM, 100 µg/mL and greater than 100 µg/mL.
On the same counts, the results for `O=C(O[C@H]1C[C@H](n2cc(/C=C/Br)c(=O)[nH]c2=O)O[C@@H]1CO)c1ccc(Cl)c(Cl)c1` [Example 34, E-5-(2-bromovinyl)-3'-O-(3,4-dichlorobenzoyl)-2'-deoxyuridine] are 2.3 µM, 1.2 µg/mL and greater than 100 µg/mL.
Turning to `O=C(OC[C@H]1O[C@@H](n2cc(/C=C/Br)c(=O)[nH]c2=O)C[C@@H]1O)c1ccc(Cl)c(Cl)c1` [Example 35, E-5-(2-Bromovinyl)-5' -O-(3 ,4-dichlorobenzoyl)-2'-deoxyuridine], the IC50 was 2.8 µM in data set [1] (setting [3]) and 1.4 µg/mL in data set [1] (setting [4]). The molecule further had an MCC at 144 h in data set [2] greater than 100 µg/mL.
The matching figures for `Cc1ccc(C(=O)O[C@H]2C[C@H](n3cc(/C=C/Br)c(=O)[nH]c3=O)O[C@@H]2CO)cc1` [Example 37, E-5-(2-bromovinyl)-3'-O-(4-methylbenzoyl)-2'-deoxyuridine]: 1.4 µM, 0.63 µg/mL and greater than 100 µg/mL.
As for `Cc1ccc(C(=O)OC[C@H]2O[C@@H](n3cc(/C=C/Br)c(=O)[nH]c3=O)C[C@@H]2O)cc1` [Example 38, E-5-(2-Bromovinyl)-5'-O-(4-methylbenzoyl)-2' -deoxyuridine], the results for the IC50 in data set [1] (setting [3]) and in data set [1] (setting [4]) were 1.7 µM and 0.78 µg/mL, respectively. In addition, the MCC at 144 h in data set [2] was greater than 100 µg/mL.
The matching figures for `CCCCc1ccc(C(=O)OC[C@H]2O[C@@H](n3cc(/C=C/Br)c(=O)[nH]c3=O)C[C@@H]2O)cc1` [Example 40, E-5-(2-bromovinyl)-5'-0-(4-n-butylbenzoyl)-2'-deoxyuridine]: 12 µM, 6.1 µg/mL and greater than 100 µg/mL.
The matching figures for `CN(C)c1ccc(C(=O)O[C@H]2C[C@H](n3cc(/C=C/Br)c(=O)[nH]c3=O)O[C@@H]2CO)cc1` [Example 42, E-5-{2-bromovinyl)-3'-O-(4-N,N-dimethylaminobenzoyl)-2'-deoxyuridine]: 1.4 µM, 0.63 µg/mL and greater than 100 µg/mL.
